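48-hour exposure; five concentrations; linearly interpolated endpoints. TGI: total growth inhibition.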

Among the test systems are A498 renal; CAKI-1 renal; EKVX NSCLC; HL-60(TB) leukemia; HOP-92 NSCLC; K-562 leukemia; MALME-3M melanoma; NCI-H23 lung; OVCAR-3 ovarian; OVCAR-4 ovarian; OVCAR-8 ovarian; PC-3 prostate; RXF 393 renal; TK-10 renal; UO-31 renal.
Experiment in all cases: NCI tumour cell line growth inhibition, 48 h

As to `COc1cccc(NC(=O)CC(=O)N2N=C(C)C(N=Nc3ccc(S(=O)(=O)c4ccc(N=NC5C(=O)N(C(=O)CC(=O)Nc6cccc(OC)c6)N=C5C)cc4)cc3)C2=O)c1` (stereo not given), the TGI in the assay on A498 renal, in the assay with CAKI-1 renal, in the assay with EKVX NSCLC, with HL-60(TB) leukemia, in the assay on HOP-92 NSCLC and in the assay on K-562 leukemia was greater than 100 µM each time. Further, the TGI in the assay with MALME-3M melanoma, in the assay on NCI-H23 lung, in the assay with OVCAR-3 ovarian, in the assay on OVCAR-4 ovarian, in the assay on OVCAR-8 ovarian and in the assay with PC-3 prostate was greater than 100 µM each time. In addition, the TGI in the assay on RXF 393 renal, in the assay on TK-10 renal and in the assay on UO-31 renal was greater than 100 µM in each case.

Take `S=c1[nH]c(=S)c2cc(Sc3ccc4[nH]c(=S)[nH]c(=S)c4c3)ccc2[nH]1`: the TGI in the assay on A498 renal was 44 µM; in the assay with CAKI-1 renal, 83.7 µM; with EKVX NSCLC, greater than 100 µM; in the assay with HL-60(TB) leukemia, 62.8 µM; in the assay on HOP-92 NSCLC, 57.4 µM; in the assay on K-562 leukemia it was greater than 100 µM. Further, the TGI in the assay with MALME-3M melanoma is greater than 100 µM; with NCI-H23 lung, 51.4 µM; with OVCAR-3 ovarian it was greater than 100 µM; in the assay with OVCAR-4 ovarian, 49.7 µM; with OVCAR-8 ovarian, 48.1 µM; in the assay on PC-3 prostate it was greater than 100 µM. The TGI in the assay on RXF 393 renal was determined as 53.3 µM; in the assay on TK-10 renal, 67.7 µM; in the assay with UO-31 renal, 82.4 µM.

For `COc1ccc(N=C(Nc2ccc(OC)cc2)C(=Nc2ccc(OC)cc2)Nc2ccc(OC)cc2)cc1`, the TGI in the assay on A498 renal, in the assay with CAKI-1 renal, in the assay on EKVX NSCLC, in the assay with HL-60(TB) leukemia, in the assay with HOP-92 NSCLC and in the assay with K-562 leukemia was greater than 100 µM in each case. Also, the TGI in the assay with MALME-3M melanoma, with NCI-H23 lung, with OVCAR-3 ovarian, in the assay with OVCAR-4 ovarian, in the assay with OVCAR-8 ovarian and in the assay on PC-3 prostate was greater than 100 µM each time. The TGI with RXF 393 renal, in the assay on TK-10 renal and in the assay with UO-31 renal was greater than 100 µM each time.

With `C(=C\C(SCc1ccccc1)SCc1ccccc1)/c1ccccc1`, the TGI in the assay with A498 renal, in the assay on CAKI-1 renal, in the assay with EKVX NSCLC, in the assay with HL-60(TB) leukemia, in the assay on HOP-92 NSCLC and in the assay on K-562 leukemia was greater than 10 µM each time. Further, the TGI in the assay on MALME-3M melanoma, in the assay on NCI-H23 lung, in the assay with OVCAR-3 ovarian, in the assay with OVCAR-4 ovarian, in the assay with OVCAR-8 ovarian and in the assay on PC-3 prostate was greater than 10 µM throughout. Also, the TGI in the assay on RXF 393 renal, in the assay with TK-10 renal and with UO-31 renal was greater than 10 µM in each case.

Regarding `Clc1ccc(C2NN=C3c4ccccc4OCC32)cc1` (stereo not given), the TGI in the assay on A498 renal is 92.6 µM; in the assay on CAKI-1 renal, greater than 100 µM; with EKVX NSCLC it was 27.2 µM; in the assay with HL-60(TB) leukemia, 11.9 µM; in the assay with HOP-92 NSCLC, greater than 100 µM; with K-562 leukemia it was greater than 22.9 µM. Further, the TGI is 23.1 µM in the assay on MALME-3M melanoma; 51 µM with NCI-H23 lung; 29.6 µM in the assay on OVCAR-3 ovarian; greater than 73.1 µM in the assay with OVCAR-4 ovarian; 55.2 µM in the assay on OVCAR-8 ovarian; 64.3 µM in the assay with PC-3 prostate. For the same molecule, the TGI in the assay with RXF 393 renal was 41.3 µM; with TK-10 renal, greater than 100 µM; in the assay on UO-31 renal, 41.4 µM.

Regarding `O=[N+]([O-])c1ccc2nc(/C=C(\O)c3ccc(F)cc3)c(/C=C(\O)c3ccc(F)cc3)nc2c1`, the TGI with A498 renal is 52.3 µM; in the assay on CAKI-1 renal, greater than 100 µM; with EKVX NSCLC it was greater than 100 µM; with HL-60(TB) leukemia, 55.7 µM; in the assay with HOP-92 NSCLC, greater than 100 µM; with K-562 leukemia, greater than 100 µM. Also, the TGI in the assay with MALME-3M melanoma was greater than 100 µM; in the assay on NCI-H23 lung, 77.7 µM; in the assay with OVCAR-3 ovarian it was greater than 100 µM; in the assay with OVCAR-4 ovarian it was greater than 100 µM; in the assay on OVCAR-8 ovarian, greater than 100 µM; in the assay with PC-3 prostate it was greater than 100 µM. In addition, the values for the TGI in the assay on RXF 393 renal, in the assay with TK-10 renal and in the assay with UO-31 renal were 40.7 µM, 34.2 µM and greater than 100 µM, respectively.

For the molecule `O=C1CCCCc2cccc(O)c21`, the TGI with A498 renal, in the assay on CAKI-1 renal, with EKVX NSCLC, in the assay on HL-60(TB) leukemia, with HOP-92 NSCLC and in the assay with K-562 leukemia was greater than 100 µM each time. The TGI with MALME-3M melanoma, with NCI-H23 lung, in the assay on OVCAR-3 ovarian, in the assay with OVCAR-4 ovarian, in the assay with OVCAR-8 ovarian and in the assay with PC-3 prostate was greater than 100 µM in each case. Besides, the TGI in the assay with RXF 393 renal, in the assay on TK-10 renal and in the assay on UO-31 renal was greater than 100 µM in each case.

For the origin of these results see PubChem BioAssay (NCI).
